Several values for one entry are separate records, joined by “and”; a condition that tells them apart may be missing. Equal values may be shown once.

The target in assay [1] is T1, Genome polyprotein (dengue virus type 2, UniProt P29990). The assay is classed as functional, Thailand/16681/1984.
Assay [2] concerns the target T1, Genome polyprotein. The assay is classed as functional, Thailand/16681/1984. This is another data set of the same source.

T1 sequence (P29990 1346-1475 limits assumed): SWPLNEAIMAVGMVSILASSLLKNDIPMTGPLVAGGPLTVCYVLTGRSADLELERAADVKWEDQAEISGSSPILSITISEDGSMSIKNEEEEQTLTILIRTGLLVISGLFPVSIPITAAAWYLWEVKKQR
T1 sequence (P29990 1476-2093 limits assumed): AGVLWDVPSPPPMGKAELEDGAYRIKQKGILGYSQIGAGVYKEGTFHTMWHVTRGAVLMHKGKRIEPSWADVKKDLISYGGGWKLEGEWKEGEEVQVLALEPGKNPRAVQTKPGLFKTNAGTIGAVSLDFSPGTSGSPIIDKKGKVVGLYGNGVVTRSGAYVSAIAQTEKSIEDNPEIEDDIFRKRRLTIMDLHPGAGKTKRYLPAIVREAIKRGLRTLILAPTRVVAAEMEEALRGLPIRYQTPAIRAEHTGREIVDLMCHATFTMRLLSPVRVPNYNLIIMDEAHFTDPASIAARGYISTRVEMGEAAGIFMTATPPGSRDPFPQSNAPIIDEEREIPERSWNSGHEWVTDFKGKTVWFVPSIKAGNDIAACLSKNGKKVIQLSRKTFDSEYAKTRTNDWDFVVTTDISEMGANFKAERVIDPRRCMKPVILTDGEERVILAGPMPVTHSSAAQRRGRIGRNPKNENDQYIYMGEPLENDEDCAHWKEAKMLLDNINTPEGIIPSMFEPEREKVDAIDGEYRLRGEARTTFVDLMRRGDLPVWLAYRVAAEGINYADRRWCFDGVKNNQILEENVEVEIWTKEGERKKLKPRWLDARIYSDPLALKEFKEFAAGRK

The IC50 is the midpoint of a concentration-inhibition curve. The low end stands for greater potency in that assay, the high end for weaker potency in that assay. Regarding `O=C1NS(=O)(=O)c2ccc(NC(=O)c3cc(Cl)cc4[nH]ncc34)cc21`, the values for the IC50 against Genome polyprotein [1] and on Genome polyprotein [2] were more than 99.5 µM and more than 100 µM, respectively.
Turning to `CNC(=O)[C@H](Nc1cc(Cl)cc(NC(=O)OCc2ccccc2)c1)c1ccc(-c2nn[nH]n2)cc1`, the IC50 against Genome polyprotein [1] is 45.6 µM; against Genome polyprotein [2], 19.2 µM.
The corresponding values for `COc1ccc(CN2Cc3cc(NC(=O)c4cc(Cl)cc5[nH]ncc45)cc(Br)c3C2)cc1` are more than 99.5 µM and more than 100 µM.
In the same order, the values of `O=C(NCC(F)F)[C@H](Nc1ccc2c(c1)CNC2)c1cccc2c1CCC2` are more than 99.5 µM and more than 100 µM.
Regarding `O=C1Cc2c(cccc2C(=O)Nc2ccc3c(c2)CNCCO3)N1`, the 50% inhibitory concentration (IC50) is more than 99.5 µM on Genome polyprotein [1] and more than 100 µM against Genome polyprotein [2].
Turning to `O=C(NCC(F)F)[C@H](Nc1ccc2c(c1)CNC2)c1cc(Cl)cc(Cl)c1Cl`, the IC50 against Genome polyprotein [1] was more than 99.5 µM; against Genome polyprotein [2], more than 100 µM.
The corresponding values for `CCS(=O)(=O)c1ccc(Cl)cc1C(=O)Nc1cccc(CN)c1` are more than 99.5 µM and more than 100 µM.
Regarding `O=C(NCC(F)F)[C@H](Nc1ccc2c(c1)CNC2)c1cc(Br)ccc1C1CC1`, the half-inhibitory concentration (IC50) against Genome polyprotein [1] is more than 99.5 µM; against Genome polyprotein [2] it was more than 100 µM.
Take `N#Cc1csc2cc(C(=O)Nc3ccc4c(c3)CNC4)ccc12`: the half-maximal inhibitory concentration (IC50) against Genome polyprotein [1] is more than 99.5 µM; against Genome polyprotein [2] it was more than 100 µM.
With `CNC(=O)[C@H](Nc1cc(Cl)cc(NC(=O)OCc2ccccc2)c1)c1cccc(-c2nn[nH]n2)c1`, the IC50 is 45.9 µM and 44 µM against Genome polyprotein [1]; 22.2 µM and 18 µM against Genome polyprotein [2].
Regarding `NCc1cccc(NC(=O)c2cc(Cl)cc(N3CCCC3)c2)c1`, the results for the IC50 against Genome polyprotein [1] and against Genome polyprotein [2] were more than 99.5 µM and more than 100 µM, respectively.
In the same order, the values of `O=C1Cc2c(cccc2C(=O)Nc2ccnn2Cc2ccncc2)N1` are more than 99.5 µM and more than 100 µM.
In the same order, the values of `O=C(Nc1ccc2c(c1)CNC2)c1cc(F)cc(-c2cnc(C3CC3)s2)c1` are more than 99.5 µM and more than 100 µM.
Regarding `O=C(Nc1ccc2c(c1)CNC2)c1c[nH]c2ncc(F)cc12`, the IC50 at Genome polyprotein [1] was more than 99.5 µM; at Genome polyprotein [2] it was more than 100 µM.
Turning to `O=C(Nc1ccc2c(c1)CNC2)c1ccc2[nH]ccc2c1`, the IC50 against Genome polyprotein [1] was more than 99.5 µM; at Genome polyprotein [2] it was more than 100 µM.
On to `COCCOc1ccc(Cl)cc1C(=O)Nc1cccc(CN)c1`, for which the IC50 against Genome polyprotein [1] is more than 99.5 µM; against Genome polyprotein [2], more than 100 µM.
In the case of `O=C(NCC(F)F)[C@H](Nc1cnc2c(c1)CNC2)c1cc(Cl)cc(C2CC2)c1`, the IC50 against Genome polyprotein [1] was more than 99.5 µM; at Genome polyprotein [2] it was more than 100 µM.
Regarding `O=C(Nc1ccc2c(c1)CNC2)c1cccc2[nH]ncc12`, the results for the IC50 against Genome polyprotein [1] and against Genome polyprotein [2] were more than 99.5 µM and more than 100 µM, respectively.
In the same order, the values of `NCc1cc(CC(=O)O)cc(NC(=O)c2cc(Cl)cc(NC(=O)OCc3ccccc3)c2)c1` are more than 99.5 µM and more than 100 µM.
The corresponding values for `O=C(Nc1cccc([C@@H]2C[C@H]2C(=O)O)c1)c1cc(Cl)cc2[nH]ncc12` are more than 99.5 µM and more than 100 µM.
Consider `O=C(Nc1ccc2c(c1)CNC2)c1nc2ccccc2s1`, for which the half-inhibitory concentration (IC50) on Genome polyprotein [1] is more than 99.5 µM; on Genome polyprotein [2], 87.8 µM.
With `Cc1c(C(=O)Nc2cccc(CN)c2)cc(C2CC2)n1C`, the 50% inhibitory concentration (IC50) on Genome polyprotein [1] is more than 99.5 µM; on Genome polyprotein [2], more than 100 µM.
Turning to `Cc1ccc(Sc2ncccc2C(=O)Nc2cccc(CN)c2)cc1C`, the half-maximal inhibitory concentration (IC50) on Genome polyprotein [1] was more than 99.5 µM; against Genome polyprotein [2], more than 100 µM.
For the molecule `Cc1c(C(=O)Nc2cc(SC3COC3)ccn2)cc(C2CC2)n1C`, the IC50 on Genome polyprotein [1] was more than 99.5 µM; on Genome polyprotein [2] it was more than 100 µM.
Consider `O=C(Nc1ccc(-c2nnn[nH]2)cc1)c1cc(Cl)cc(C2CC2)c1`, for which the half-inhibitory concentration (IC50) on Genome polyprotein [1] is 69.5 µM; against Genome polyprotein [2], 37.1 µM and 36 µM.
With `C=C[C@H]1NCc2cc(NC(=O)c3cc(F)cc4[nH]ncc34)ccc21`, the concentration for half-maximal inhibition (IC50) is 86.6 µM at Genome polyprotein [1] and 34 µM against Genome polyprotein [2].
In the case of `COc1ccc2[nH]cnc2c1S(=O)(=O)Nc1ccc2c(c1)CNC2`, the IC50 was more than 99.5 µM against Genome polyprotein [1] and more than 100 µM against Genome polyprotein [2].
As to `C[C@](O)(Cc1cc(Cl)cc(NC(=O)OCc2ccccc2)c1)c1cccc(CN)c1`, the concentration for half-maximal inhibition (IC50) is more than 99.5 µM against Genome polyprotein [1] and more than 100 µM at Genome polyprotein [2].

The record behind these values is ChEMBL document CHEMBL5604063, “ASAP - DENV-2 NS2B-NS3 protease fluorescence dose response” (2024).
